Like-named read-outs stand apart in the source and are kept apart here.
How the values were obtained:
[1] = molecular target: T1, rat VEGF-R2 kinase domain (Rattus norvegicus, UniProt O08775); assay: VEGF-R2 Screening Assay; assay type: biochemical
T1 construct: amino acids 786-1343 of the rat VEGF-R2 kinase domain; polyhistidine (N)

HER2 cytoplasmic domain = molecular target: T2, HER2 cytoplasmic domain (Homo sapiens, UniProt P04626); assay: HER2 Kinase Screening Assay; assay type: biochemical; conditions: > means no observed 50% inhibition at the indicated test concentration; ~ means approximately 50% inhibition at that concentration
T2 construct: polyhistidine (N)
Protocol: (§1) A kinase reaction mixture was prepared containing 50 mM Tris-HCl pH=8, 10 mM MgCl2, 0.1 mM Na3PO4, 1 mM DTT, 10 μM ATP, 0.025 μM biotinylated histone-H1 peptide substrate and 0.2 μCuries per well ^33P-γ-ATP (2000-3000 Ci/mmol). 70 μL of the kinase reaction mixture was dispensed into the well of a streptavidin coated FlashPlate™ (Cat. # SMP103, NEN, Boston, Mass.). Then 1 μL of test compound stock in 100% DMSO was added to the wells resulting in a final concentration of 1% DMSO in the reaction with a 100 μL final reaction volume.
(§2) The CDK1:Cyclin-B protein was diluted in 50 mM Tris-HCl pH=8.0, 0.1% BSA at a concentration of 1 ng per μL and 30 μL (30 ng enzyme per test well) was added to each well to initiate the reaction. The reaction was incubated for one hour at 30° C. At the end of the 1 hour incubation, the reaction was terminated by aspirating the mixture from the plate and washing the wells twice with PBS containing 100 mM EDTA. The histone-H1 biotinylated peptide substrate became immobilized on the Flashplate™ and the incorporation of ^33P-γ-ATP was measured by reading the plate on a scintillation counter. Inhibition of the enzymatic activity of CDK1 was measured by observing a reduced amount of ^33P-γ-ATP incorporated into the immobilized peptide.
The HER2 kinase assay was carried out using the CDK kinase assay procedure except that the enzyme was replaced with a HER2 construct containing a polyhistidine tag at the N-terminus followed by 24 additional amino acids and the HER2 cytoplasmic domain beginning at amino acid 676 (Accession #M11730) to the end.

CDK1:Cyclin-B = molecular target: T3, CDK1:Cyclin-B (Homo sapiens, UniProt P06493); assay: CDK1 Screening Assay; assay type: biochemical
T3 construct: purchased New England Biolabs, Beverly, Mass; 6020; host or cells: insect cells
Protocol: as §1, §2
The CDK1 used was isolated from insect cells expressing both the human CDK1 catalytic subunit and its positive regulatory subunit cyclin B (New England Biolabs, Beverly, Mass., Cat. #6020).

A375 malignant melanoma = assay: Inhibition of in vitro cell proliferation (A375); assay type: cell-based, human; conditions: Homo sapiens, A-375, 14C-thymidine incorporation;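 also: cells plated for 24 h, given compound for 24 h, then labelled with 14C-thymidine for another 24 h, with DMSO-only wells as control and counts read by scintillation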
HCT-116 colon carcinoma = assay: Inhibition of in vitro cell proliferation (HCT116); assay type: cell-based, human; conditions: Homo sapiens, HCT-116, 14C-thymidine incorporation;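 also: cells exposed to compound for 24 h, then 14C-thymidine added for a further 24 h and its uptake into DNA counted by scintillation, DMSO-only wells as control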
[2] = system: HeLa cervical adenocarcinoma; assay: Inhibition of in vitro cell proliferation (HeLa); assay type: cell-based, human; conditions: Homo sapiens, 14C-thymidine incorporation;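 also: cells exposed to compound for 24 h, then labelled 24 h with methyl 14C-thymidine, with uptake into DNA counted by scintillation against DMSO-only control wells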
murine Aurora-A = molecular target: T4, murine Aurora-A (Mus musculus, UniProt P97477); assay: Aurora-A Screening Assay; assay type: biochemical
T4 construct: replaced with the full length protein encoding the murine Aurora-A; made in house; host or cells: sf9 insect cells
T4 sequence (P97477 1-395): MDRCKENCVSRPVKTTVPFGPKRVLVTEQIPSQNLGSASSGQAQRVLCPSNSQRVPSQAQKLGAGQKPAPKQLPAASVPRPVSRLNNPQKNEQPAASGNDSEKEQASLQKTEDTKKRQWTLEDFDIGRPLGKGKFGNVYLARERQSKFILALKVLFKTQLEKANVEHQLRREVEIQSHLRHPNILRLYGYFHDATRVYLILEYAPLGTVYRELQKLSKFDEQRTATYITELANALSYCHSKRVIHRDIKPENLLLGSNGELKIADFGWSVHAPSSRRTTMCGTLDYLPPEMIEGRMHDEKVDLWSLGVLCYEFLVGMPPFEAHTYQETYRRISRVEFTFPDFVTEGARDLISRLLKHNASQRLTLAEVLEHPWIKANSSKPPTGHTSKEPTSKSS
Protocol: as §1, §2
The Aurora-A kinase assay was carried out using the CDK kinase assay procedure except that the enzyme was replaced with the full length protein encoding the murine Aurora-A (Accession #GB BC014711) expressed and purified from sf9 insect cells.

[3] = > means no observed 50% inhibition at the indicated test concentration, ~ means approximately 50% inhibition at that concentration, read-out: IC50 VEGF-R2

T1 sequence (O08775 786-1343): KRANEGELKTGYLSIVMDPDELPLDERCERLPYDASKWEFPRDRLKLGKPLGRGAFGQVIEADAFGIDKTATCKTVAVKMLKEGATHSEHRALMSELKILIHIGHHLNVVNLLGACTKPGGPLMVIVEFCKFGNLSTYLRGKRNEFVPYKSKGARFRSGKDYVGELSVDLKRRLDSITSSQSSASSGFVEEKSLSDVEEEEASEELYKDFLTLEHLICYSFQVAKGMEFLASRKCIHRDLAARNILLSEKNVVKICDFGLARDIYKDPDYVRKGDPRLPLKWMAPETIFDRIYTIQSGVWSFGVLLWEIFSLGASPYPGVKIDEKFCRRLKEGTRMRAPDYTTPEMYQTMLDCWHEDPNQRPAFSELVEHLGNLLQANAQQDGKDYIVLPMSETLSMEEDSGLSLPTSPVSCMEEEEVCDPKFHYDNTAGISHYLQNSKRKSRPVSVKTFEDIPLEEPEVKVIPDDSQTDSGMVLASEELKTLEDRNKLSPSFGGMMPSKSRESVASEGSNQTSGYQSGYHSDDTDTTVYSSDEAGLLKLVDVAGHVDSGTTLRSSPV
T2 sequence (P04626 676-1255 limits assumed): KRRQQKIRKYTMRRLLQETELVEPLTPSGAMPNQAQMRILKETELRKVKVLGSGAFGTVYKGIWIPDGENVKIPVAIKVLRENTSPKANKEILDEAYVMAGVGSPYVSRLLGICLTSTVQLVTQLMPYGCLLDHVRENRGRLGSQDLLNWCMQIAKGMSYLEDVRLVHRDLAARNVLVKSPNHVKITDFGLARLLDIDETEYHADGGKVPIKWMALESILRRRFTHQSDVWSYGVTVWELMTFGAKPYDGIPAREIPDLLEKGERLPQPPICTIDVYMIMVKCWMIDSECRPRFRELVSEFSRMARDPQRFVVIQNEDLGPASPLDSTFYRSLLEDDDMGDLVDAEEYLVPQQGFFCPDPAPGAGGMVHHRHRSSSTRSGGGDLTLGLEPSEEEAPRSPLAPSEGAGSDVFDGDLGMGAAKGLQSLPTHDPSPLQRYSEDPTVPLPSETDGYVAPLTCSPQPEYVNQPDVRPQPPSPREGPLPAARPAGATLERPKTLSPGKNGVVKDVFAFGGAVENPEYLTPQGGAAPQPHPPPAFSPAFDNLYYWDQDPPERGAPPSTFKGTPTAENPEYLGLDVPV
T3 sequence (P06493 whole entry): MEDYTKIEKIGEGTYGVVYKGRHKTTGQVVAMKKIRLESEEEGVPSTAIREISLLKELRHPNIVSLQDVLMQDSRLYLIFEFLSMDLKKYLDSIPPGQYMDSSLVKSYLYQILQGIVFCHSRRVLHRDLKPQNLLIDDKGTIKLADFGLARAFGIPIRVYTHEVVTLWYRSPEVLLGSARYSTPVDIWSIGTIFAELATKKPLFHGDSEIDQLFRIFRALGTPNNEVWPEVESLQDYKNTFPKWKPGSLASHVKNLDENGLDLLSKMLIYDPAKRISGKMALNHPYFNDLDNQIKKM
T3 sequence (P14635 whole entry partner): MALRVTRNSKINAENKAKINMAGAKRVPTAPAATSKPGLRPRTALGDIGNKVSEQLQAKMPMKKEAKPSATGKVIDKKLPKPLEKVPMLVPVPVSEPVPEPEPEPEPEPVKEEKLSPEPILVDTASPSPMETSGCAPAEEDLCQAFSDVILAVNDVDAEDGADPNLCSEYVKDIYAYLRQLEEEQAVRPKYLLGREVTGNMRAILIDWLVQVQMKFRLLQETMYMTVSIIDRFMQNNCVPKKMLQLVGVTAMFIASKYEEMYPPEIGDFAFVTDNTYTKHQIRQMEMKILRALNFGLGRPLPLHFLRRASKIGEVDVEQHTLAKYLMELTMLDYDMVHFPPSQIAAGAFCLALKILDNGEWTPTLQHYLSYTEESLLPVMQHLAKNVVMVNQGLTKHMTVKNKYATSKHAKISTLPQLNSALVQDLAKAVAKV

Row | Compound | IC50 [1, 3] [µM] | IC50 (HER2 cytoplasmic domain) [µM] | IC50 (CDK1:Cyclin-B) [µM] | IC50 (A375 malignant melanoma) [µM] | IC50 (HCT-116 colon carcinoma) [µM] | IC50 [2] [µM] | IC50 (murine Aurora-A) [µM] | IC50 ([1]; IC50 VEGF-R2) [µM]
1 | CCCNC(=O)Nc1ccc(Oc2ncnc(N)c2C=NOC)cc1Cl [Cpd 52, 1-{4-[6-amino-5-(methoxyimino-methyl)-pyrimidin-4-yloxy]-2-chloro-phenyl}-3-propyl-urea] |  | > 100 | > 100 | > 1 | > 1 | > 1 | > 100 | 0.0275
2 | CON=Cc1c(N)ncnc1Oc1ccc(NC(=O)Nc2ccccc2)c(Cl)c1 [Cpd 54, 1-{4-[6-amino-5-(methoxyimino-methyl)-pyrimidin-4-yloxy]-2-chloro-phenyl}-3-phenyl-urea] | 0.003 | > 100 | > 100 | > 100 | > 100 | > 100 | > 100 | 
3 | CON=Cc1c(N)ncnc1Oc1ccc(NC(=O)Nc2ccccc2Cl)c(Cl)c1 [Cpd 55, 1-{4-[6-amino-5-(methoxyimino-methyl)-pyrimidin-4-yloxy]-2-chloro-phenyl}-3-(2-chloro-phenyl)-urea] | 0.0026 | 1.82 | > 100 | > 10 | > 10 | > 10 | > 10 | 
4 | CON=Cc1c(N)ncnc1Oc1ccc(NC(=O)Nc2ccccc2F)c(Cl)c1 [Cpd 56, 1-{4-[6-amino-5-(methoxyimino-methyl)-pyrimidin-4-yloxy]-2-chloro-phenyl}-3-(2-fluoro-phenyl)-urea] |  | > 10 | > 100 | > 10 | > 10 | > 10 | > 100 | 0.0033
5 | CON=Cc1c(N)ncnc1Oc1ccc(NC(=O)Nc2cccc(F)c2)c(Cl)c1 [Cpd 57, 1-{4-[6-amino-5-(methoxyimino-methyl)-pyrimidin-4-yloxy]-2-chloro-phenyl}-3-(3-fluoro-phenyl)-urea] | 0.0017 | > 10 | > 100 | > 10 | > 10 | > 10 | > 100 | 
6 | CON=Cc1c(N)ncnc1Oc1ccc(NC(=O)Nc2ccccc2OC)c(Cl)c1 [Cpd 58, 1-{4-[6-amino-5-(methoxyimino-methyl)-pyrimidin-4-yloxy]-2-chloro-phenyl}-3-(2-methoxy-phenyl)-urea] | 0.0025 | 1.7 | > 100 | 5.06 | 8.19 | 11.9 | > 100 | 
7 | CON=Cc1c(N)ncnc1Oc1ccc(NC(=O)Nc2ccc(F)cc2)c(Cl)c1 [Cpd 60, 1-{4-[6-amino-5-(methoxyimino-methyl)-pyrimidin-4-yloxy]-2-chloro-phenyl}-3-(4-fluoro-phenyl)-urea] | 0.0028 | > 100 | > 100 | > 10 | > 10 | > 10 | > 10 | 

The next lines start with results.

Row | IC50 [1, 3] [µM] | IC50 (HER2 cytoplasmic domain) [µM] | IC50 (CDK1:Cyclin-B) [µM] | IC50 (A375 malignant melanoma) [µM] | IC50 (HCT-116 colon carcinoma) [µM] | IC50 [2] [µM] | IC50 (murine Aurora-A) [µM] | Compound | IC50 ([1]; IC50 VEGF-R2) [µM]
8 | 0.13 | 0.596 | > 100 | > 100 | 0.1 | > 100 | > 10 | Cc1cc2c(F)c(Oc3ncnc(N)c3C=NOCCCCN3CCCC3)ccc2[nH]1 [Cpd 25, 4-amino-6-(4-fluoro-2-methyl-1H-indol-5-yloxy)-pyrimidine-5-carbaldehyde O-(4-pyrrolidin-1-yl-butyl)-oxime] | 
9 | 0.048 | 1.02 | > 100 | > 100 | > 1 | > 100 | > 100 | Cc1cc2c(F)c(Oc3ncnc(N)c3C=NOCCCCN3CCOCC3)ccc2[nH]1 [Cpd 26, 4-amino-6-(4-fluoro-2-methyl-1H-indol-5-yloxy)-pyrimidine-5-carbaldehyde O-(4-morpholin-4-yl-butyl)-oxime] | 
10 | 0.046 | > 100 | > 100 | 0.07 | 0.333 | 0.324 | > 100 | Cc1cc2c(F)c(Oc3ncnc(N)c3C=NOCC3CC3)ccc2[nH]1 [Cpd 32, 4-amino-6-(4-fluoro-2-methyl-1H-indol-5-yloxy)-pyrimidine-5-carbaldehyde O-cyclopropylmethyl-oxime] | 
11 | 0.0577 | 0.868 | > 100 | 0.618 | 2.34 | 1.83 | > 100 | Cc1cc2c(F)c(Oc3ncnc(N)c3C=NOCCCCO)ccc2[nH]1 [Cpd 38, 4-amino-6-(4-fluoro-2-methyl-1H-indol-5-yloxy)-pyrimidine-5-carbaldehyde O-(4-hydroxy-butyl)-oxime] | 
12 | 0.108 | > 10 | > 100 | 3.77 | 3.43 | 4.37 | > 100 | CON=Cc1c(N)ncnc1Oc1ccc2c(c1)cc(C)n2C(=O)NCCO [Cpd 39, 5-[6-amino-5-(methoxyimino-methyl)-pyrimidin-4-yloxy]-2-methyl-indole-1-carboxylic acid (2-hydroxy-ethyl)-amide] | 
13 | 0.0304 | > 10 | 28 | 2.59 | 4.54 | 4.24 | > 100 | CON=Cc1c(N)ncnc1Oc1ccc2c(c1)cc(C)n2C(=O)NCCCO [Cpd 40, 5-[6-amino-5-(methoxyimino-methyl)-pyrimidin-4-yloxy]-2-methyl-indole-1-carboxylic acid (3-hydroxy-propyl)-amide] | 
14 | 0.0542 | > 10 | > 100 | > 1 | > 10 | > 10 | > 100 | CON=Cc1c(N)ncnc1Oc1ccc2c(c1)cc(C)n2C(=O)NCCCCN1CCCC1 [Cpd 42, 5-[6-amino-5-(methoxyimino-methyl)-pyrimidin-4-yloxy]-2-methyl-indole-1-carboxylic acid (4-pyrrolidin-1-yl-butyl)-amide] | 
15 | > 100 | > 100 | > 100 | > 10 | > 10 | > 10 | > 100 | CON=Cc1c(N)ncnc1Oc1ccc2c(c1)cc(C)n2C(=O)NCc1ccccc1 [Cpd 47, 5-[6-amino-5-(methoxyimino-methyl)-pyrimidin-4-yloxy]-2-methyl-indole-1-carboxylic acid benzylamide] | 
16 | 0.0076 | > 10 | > 100 | 1.15 | 1.22 | 3.37 | > 100 | CCCNC(=O)n1c(C)cc2cc(Oc3ncnc(N)c3C=NOC)ccc21 [Cpd 48, 5-[6-amino-5-(methoxyimino-methyl)-pyrimidin-4-yloxy]-2-methyl-indole-1-carboxylic acid propylamide] | 
17 | 0.0191 | > 10 | > 100 | > 1 | > 1 | > 1 | > 100 | C=CCNC(=O)Nc1ccc(Oc2ncnc(N)c2C=NOC)cc1Cl [Cpd 53, 1-allyl-3-{4-[6-amino-5-(methoxyimino-methyl)-pyrimidin-4-yloxy]-2-chloro-phenyl}-urea] | 
18 | 0.003 | > 1 | > 100 | > 10 | > 10 | > 10 | > 100 | CON=Cc1c(N)ncnc1Oc1ccc(NC(=O)Nc2cccc(Cl)c2)c(Cl)c1 [Cpd 59, 1-{4-[6-amino-5-(methoxyimino-methyl)-pyrimidin-4-yloxy]-2-chloro-phenyl}-3-(3-chloro-phenyl)-urea] | 

Source: patent US8013153B2, “Substituted pyrimidine kinase inhibitors” (Janssen Pharmaceutica, N.V., priority 2006, dated 2011)
